Assay results from patent US10765681B2 (Academia Sinica, priority 2016, dated 2020).
Where two headings read alike, the source gives them in different places.

Columns and labels:
H1975 lung cancer cells = experiment: MTT assay, growth of H1975 lung cancer cells; format: cell-based; conditions: Homo sapiens
[1] = NCI-H1975, H1975, MTT, Table 2, read-out: IC50 against the growth of H1975 lung cancer cells
[2] = NCI-H1975, H1975 lung cancer cell line, MTT, Table 3, read-out: IC50 H1975
[3] = NCI-H1975, read-out: IC50 against the growth of H1975 lung cancer cells

Row | IC50 (H1975 lung cancer cells; [1]) [µM] | melting point | Structure (SMILES) | further results
1 | 41.6 ± 11.6 |  | CCOc1ccc(-c2nc(C(N)=O)c3nc(SC(C)=O)n(-c4ccccc4)c3n2)cc1 [Compound 26a, 8-(Acetylthio)-2-(4-ethoxyphenyl)-9-phenylpurine-6-carboxamide] | IC50 (H1975 lung cancer cells; [2]): 41.6 ± 11.6 µM
2 | 10.5 ± 0.25 |  | CCCCCCCCCCCCNC(=O)c1cccc(-n2c(=O)[nH]c3c(C(N)=O)nc(-c4ccc(OCC)cc4)nc32)c1 [Compound 8b, 2-(4-Ethoxyphenyl)-9-(3-dodecylcarbamoyl)phenyl-8-oxopurine-6-carboxamide] | 
3 |  | 321.2 to 321.8 °C (dec.) | CCOc1ccc(-c2nc(C(N)=O)c3nc(S)n(-c4ccccc4)c3n2)cc1 [Compound 10a, 2-(4-Ethoxyphenyl)-9-phenyl-8-mercaptopurine-6-carboxamide] | 
4 | 7.91 ± 0.18 |  | CCOc1ccc(-c2nc(C(N)=O)c3[nH]c(=O)n(-c4cccc(C(=O)O)c4)c3n2)cc1 [Compound 6e, 2-(4-Ethoxyphenyl)-9-(3-carboxy)phenyl-8-oxopurine-6-carboxamide] | 
5 |  | 235 to 237 °C | CCOc1ccc(-c2nc(C#N)c3c(n2)n(-c2ccccc2OC)c(=O)n3C)cc1 [Compound 15a, 2-(4-Ethoxyphenyl)-9-(2-methoxyphenyl)-7-methyl-8-oxopurine-6-carbonitrile] | 
6 | 0.49 ± 0.1 |  | CCCCCCNC(=O)c1cccc(-n2c(=O)[nH]c3c(C(N)=O)nc(-c4ccc(OCC)cc4)nc32)c1 [Compound 8a, 2-(4-Ethoxyphenyl)-9-(3-hexylcarbamoyl)phenyl-8-oxopurine-6-carboxamide] | 
7 |  | 164 to 166 °C | CCOc1ccc(-c2nc(C#N)c3c(n2)n(-c2ccccc2OC)c(=O)n3Cc2ccccc2)cc1 [Compound 15c, 7-Benzyl-2-(4-ethoxyphenyl)-9-(2-methoxyphenyl)-8-oxopurine-6-carbonitrile] | 
8 |  | 361 to 363 °C | NC(=O)c1nc(-c2ccc(O)cc2)nc2c1nc(S)n2-c1ccccc1 | 
9 |  | 88 to 90 °C | C=CCn1oc(=O)nc1-c1nc(-c2ccc(OCC)cc2)nc2c1n(CC=C)c(=O)n2-c1ccccc1OC [Compound 25a, 2-Allyl-3-[7-allyl-2-(4-ethoxyphenyl)-9-(2-methoxyphenyl)-8-oxopurin-6-yl]-1,2,4-oxadiazol-5-one] | 
10 | 2.1 |  | CCOc1ccc(-c2nc(C(N)=O)c3nc(SCC(=O)OC)n(-c4ccccc4)c3n2)cc1 [Compound 11f, 2-(4-Ethoxyphenyl)-8-(methoxycarbonylmethylthio)-9-phenylpurine-6-carb oxamide] | 
11 | 6.37 ± 0.51 |  | CCCCSc1nc2c(C(N)=O)nc(-c3ccc(OCC)cc3)nc2n1-c1ccccc1 [Compound 11b, 8-(Butylthio)-2-(4-ethoxyphenyl)-9-phenylpurine-6-carboxamide] | 
12 |  | 260 to 262 °C (dec.) | CCOc1ccc(-c2nc(C#N)c3nc(NC(=O)OC(C)(C)C)n(-c4ccccc4OC)c3n2)cc1 [Compound 34a, Tert-butyl (6-cyano-2-(4-ethoxyphenyl)-9-(2-methoxyphenyl)purin-8-yl)carbamate] | 
13 | 2.8 | 226 to 228 °C | COc1ccc(-c2nc(C(=N)NO)c3[nH]c(=O)n(-c4ccccc4OC)c3n2)cc1O [Compound 14f, 2-(3-Hydroxy-4-methoxyphenyl)-9-(2-methoxyphenyl)-8-oxopurine-6-(N-hydroxy)carboximidamide] | IC50 (H1975 lung cancer cells; [2]): 2.8 µM
14 |  | 270 to 272 °C | CCOC(=O)Oc1nc2c(C#N)nc(-c3ccc(OCC)cc3)nc2n1-c1ccccc1OC [Compound 17a, 6-Cyano-2-(4-ethoxyphenyl)-9-(2-methoxyphenyl)purin-8-yl ethyl carbonate] | 
15 |  | 179.2 to 180.4 °C | CCOc1ccc(-c2nc(C#N)c3nc(SC(=O)OCc4ccccc4)n(-c4ccccc4)c3n2)cc1 [Compound 28a, 8-(Benzyloxycarbonylthio)-2-(4-ethoxyphenyl)-9-phenylpurine-6-carboxnitrile] | 
16 |  | 288 to 290 °C | CCOc1ccc(-c2nc(C(N)=O)c3[nH]c(=O)n(-c4cc(C(F)(F)F)cc(C(F)(F)F)c4)c3n2)cc1 [Compound 5m, 9-(3,5-Bis(trifluoromethyl)phenyl)-2-(4-ethoxyphenyl)-8-oxopurine-6-carboxamide] | 

Row | IC50 (H1975 lung cancer cells; [1]) [µM] | melting point | Structure (SMILES) | further results
17 |  | 297 to 299 °C | CCOc1ccc(-c2nc(C#N)c3[nH]c(=O)n(-c4cccc(C(=O)OC)c4)c3n2)cc1 [Compound 12c, 2-(4-Ethoxyphenyl)-9-(3-methoxycarbonylphenyl)-8-oxopurine-6-carbonitrile] | 
18 |  | 273 to 275 °C | CCOc1ccc(-c2nc(C#N)c3nc(N4CCOCC4)n(-c4ccccc4OC)c3n2)cc1 [Compound 33b, 2-(4-Ethoxyphenyl)-9-(2-methoxyphenyl)-8-morpholinopurine-6-carbonitrile] | IC50 (H1975 lung cancer cells; [2]): 74 µM
19 |  | 144 to 146 °C | C=CCn1c(=O)n(-c2ccccc2OC)c2nc(-c3ccc(OCC)cc3)nc(C#N)c21 | 
20 |  | 297 to 299 °C | CCOc1ccc(-c2nc(C#N)c3nc(N)n(-c4ccccc4OC)c3n2)cc1 [Compound 33a, 8-Amino-2-(4-ethoxyphenyl)-9-(2-methoxyphenyl)purine-6-carbonitrile] | 
21 |  | 370.2 to 371.8 °C | COc1ccccc1-n1c(=O)[nH]c2c(C(N)=O)nc(-c3ccc(O)cc3)nc21 [Compound 5b, 2-(4-Hydroxyphenyl)-9-(2-methoxyphenyl)-8-oxopurine-6-carboxamide] | 
22 | 25.8 | 294 to 296 °C | COc1ccc(-c2nc(C#N)c3[nH]c(=O)n(-c4ccccc4OC)c3n2)cc1O [Compound 12f, 2-(3-Hydroxy-4-methoxyphenyl)-9-(2-methoxyphenyl)-8-oxopurine-6-carbonitrile] | IC50 (H1975 lung cancer cells; [2]): 25.8 µM
23 |  | 257 to 259 °C | CCOc1ccc(-c2nc(C(=N)NO)c3[nH]c(=O)n(-c4cccc(C(=O)OC)c4)c3n2)cc1 [Compound 14c, 2-(4-Ethoxyphenyl)-9-(3-methoxycarbonylphenyl)-8-oxopurine-6-(N-hydroxy)carboximidamide] | 
24 |  | 278.5 to 280 °C | CCOc1ccc(-c2nc(C#N)c3nc(S)n(-c4ccccc4)c3n2)cc1 [Compound 27a, 2-(4-Ethoxyphenyl)-8-mercapto-9-phenylpurine-6-carboxnitrile] | 
25 |  | 299 to 301 °C | CCOc1ccc(-c2nc(C(N)=O)c3nc(S)n(-c4cc(C(F)(F)F)cc(C(F)(F)F)c4)c3n2)cc1 [Compound 10c, 9-(3,5-Bis(trifluoromethyl)phenyl)-2-(4-ethoxyphenyl)-8-mercaptopurine-6-carboxamide] | 
26 |  | 322.8 to 324.3 °C | CCOc1ccc(-c2nc(C(N)=O)c3[nH]c(=O)n(-c4cccc([N+](=O)[O-])c4)c3n2)cc1 [Compound 5l, 2-(4-Ethoxyphenyl)-9-(3-nitrophenyl)-8-oxopurine-6-carboxamide] | 
27 |  | 319 to 321 °C | COc1ccc(-c2nc(C(N)=O)c3[nH]c(=O)n(-c4ccccc4OC)c3n2)cc1O [Compound 5n, 2-(3-Hydroxy-4-methoxyphenyl)-9-(2-methoxyphenyl)-8-oxopurine-6-carboxamide] | 
28 |  | 288 to 290 °C | CCOc1ccc(-c2nc(C#N)c3[nH]c(=O)n(-c4ccccc4OC)c3n2)cc1 [Compound 12a, 2-(4-Ethoxyphenyl)-9-(2-methoxyphenyl)-8-oxopurine-6-carbonitrile] | 
29 | 3.94 ± 0.06 |  | CCOc1ccc(-c2nc(C(N)=O)c3nc(SCC(=O)O)n(-c4ccccc4)c3n2)cc1 [Compound 11g, 8-(Carboxymethylthio)-2-(4-ethoxyphenyl)-9-phenylpurine-6-carboxamide] | 
30 | 0.39 ± 0.01 |  | CCOc1ccc(-c2nc(C(N)=O)c3[nH]c(=O)n(-c4cccc(C(=O)NCCCCCN=[N+]=[N-])c4)c3n2)cc1 [Compound 8c, 2-(4-Ethoxyphenyl)-9-[3-(5-azidopentylcarbamoyl)]phenyl-8-oxopurine-6-carboxamide] | 
31 |  | 309.7 to 311 °C (dec.) | CCOc1ccc(-c2nc(C(N)=O)c3nc(SC)n(-c4ccccc4)c3n2)cc1 [Compound 11a, 2-(4-Ethoxyphenyl)-8-(methylthio)-9-phenylpurine-6-carboxamide] | 
32 |  |  | CCOc1ccc(-c2nc(C(N)=O)c3[nH]c(=O)n(-c4cccc(C(=O)NCCCCCNC(=O)CCCC[C@@H]5SC[C@@H]6NC(=O)N[C@@H]65)c4)c3n2)cc1 [Compound 8f] | IC50 (H1975 lung cancer cells; [3]): 26.3 ± 0.31 µM

Row | Structure (SMILES) | IC50 (H1975 lung cancer cells; [1]) [µM] | melting point | further results
33 | CCCCOc1ccc(-c2nc(C(N)=O)c3[nH]c(=O)n(-c4ccccc4OC)c3n2)cc1 [Compound 5c, 2-(4-Butoxyphenyl)-9-(2-methoxyphenyl)-8-oxopurine-6-carboxamide] | 4.66 ± 0.05 | 268.7 to 270.2 °C | 
34 | CCOc1ccc(-c2nc(C(N)=O)c3[nH]c(=O)n(-c4cccc(C(=O)NCCCCCNC(=O)OC(C)(C)C)c4)c3n2)cc1 [Compound 8d, 2-(4-Ethoxyphenyl)-9-[3-(5-tert-butoxycarbonylamino)pentylcarbamoyl]phenyl-8-oxopurine-6-carboxamide] | 15.5 ± 1.96 |  | 
35 | COC(=O)c1cccc(-n2c(=O)[nH]c3c(C(N)=O)nc(-c4ccc(OC)c(O)c4)nc32)c1 [Compound 5j, 2-(3-Hydroxy-4-methoxyphenyl)-9-(3-methoxycarbonylphenyl)-8-oxopurine-6-carboxamide] |  | 333.3 to 334.3 °C | IC50 (H1975 lung cancer cells; [3]): 0.35 ± 0.01 µM
36 | CCOc1ccc(-c2nc(C(N)=O)c3nc(SCC(=O)N4CCN(C(=O)OC(C)(C)C)CC4)n(-c4ccccc4)c3n2)cc1 [Compound 11d, 2-(4-Ethoxyphenyl)-9-phenyl-8-{[(4-tert-butoxycarbonyl)piperazinocarbonyl]methylthio}purine-6-carb oxamide] | 1.8 |  | 
37 | COc1ccc(-c2nc(C(N)=O)c3nc(S)n(-c4ccccc4)c3n2)cc1O [Compound 10b, 2-(3-Hydroxy-4-methoxyphenyl)-8-mercapto-9-phenylpurine-6-carboxamide] |  | 368.9 to 369.7 °C (dec.) | IC50 (H1975 lung cancer cells; [3]): 0.24 ± 0.04 µM
